Experiment [1] concerns CCRF-CEM cells. Briefly: Nucleotides pool measurements. Format: cell-based, human. Particulars: 24 h, dT 200 µM, dC 1 µM, OR0642 1 µM. Here is the method:
CCRF-CEM cells exposed to compounds (dT (200 µM) and/or dC, OR0642, DI-87 and DI-39 (1 µM)) for 0 and 24 h were washed, counted and pelleted. Pellets were extracted with the cold sampling solution (acetonitrile (4) / methanol (4)/125 mM formic acid (2)), vortexed and placed 1 h at −20 °C. Then centrifuged and evaporated. Central metabolites were separated on an ionic chromatography column IonPac AS11 (250 × 2 mm i.d.; Dionex). Solvent used was KOH at a flow rate of 350 µl/min. The column was then equilibrated for 6 min at the initial conditions before the next sample was analyzed. The volume of injection was 15 µl. High-resolution experiments were performed with an ICS5000+, ion chromatography system (Dionex) system coupled to an Orbitrap Qexactive+ mass spectrometer (Thermo Fisher Scientific, Waltham) equipped with a heated electrospray ionization probe. MS analyses were performed in negative FTMS mode at a resolution of 140,000 (at 400 m/z) in full-scan mode, with the following source parameters: 325 °C for the capillary temperature, 380 °C for the source heater temperature, 50 a.u. (arbitrary unit) for the sheath gas flow rate, 5 a.u. for the auxiliary gas flow rate, 50% for the S-Lens RF level, and 2.75 kV for the source voltage. Metabolites were determined by extracting the exact mass with a tolerance of 5 ppm. Each experiment was performed three times.

For experiment [2], the system named is CCRF-CEM cells. Briefly: Annexin V apoptosis assay. It counts as cell-based, human. As to conditions: 72 h, dT 200 µM, others 1 µM, presence of dC. As to the method:
CCRF-CEM cells were seeded at 100,000 cells/ml, and treated with DMSO (0.01%) as vehicle control or dT (200 μΜ), and/or dC, OR0642, DI-87 and DI-39 (1 μΜ). For cell cycle analysis, cells were harvested after 24 h, fixed in 4% paraformaldehyde, permeabilized with 0.15% Triton X100, and DNA content was determined using 1 μg/ml DAPI. For apoptosis assay, cells were harvested after 72 h and cell death was assayed using Annexin V-APC and 7AAD following manufacturer’s instructions (Biolegend, 640930). For γH2A.X measurements, cells were harvested after 24 h, fixed in 4% paraformaldehyde and permeabilized with 0.15% Triton X100. Then, cells were stained with the phospho-H2AX (pS139 H2AX, Biolegend, 613402, 1:1000) specific primary antibody, Alexa-Fluor 488 secondary antibody (ThermoFisher, A21202, 1:1000) and DAPI. All acquisitions were performed on a BD Fortessa cytometer, and analysis of flow cytometry data was performed using FlowJo™ Software 10.7.1 (BD Life Sciences). Each experiment was performed three times. Figures exemplifying the gating strategy are provided in the Supplementary Information (Supplementary Figs. 29–31).

In experiment [3] the target is dCK-C3S-S74E. Briefly: Isothermal titration calorimetry (ITC). Format: binding, human. As to conditions: 25 °C. The text has this: BL21 pRIL Escherichia coli cells were transformed with dCK-plasmids (dCK-C4S-S74E (for crystallization assays) and dCK-C3S-S74E (for TSA, enzymatic and ITC assays)). Protein dCK-C4S-S74E used for crystallization assays contained four mutations in order to generate better quality crystals (four solvent-exposed cysteine residues were mutated to serine; C9S, C45S, C59S and C146S). Protein dCK-C3S-S74E used for other assays contained only three mutated cysteines. The S74E mutation mimics the phosphorylated state of this serine, which favors the open conformation of the enzyme, making it competent for nucleoside binding[45] to evaluate the binding affinity with compounds. E. coli cells were grown in LB media containing 100 μg/ml ampicillin and 34 μg/ml chloramphenicol at 18 °C for 20 h after induction with 1 mM IPTG.
Sequence of dCK-C3S-S74E (P27707 whole entry S74E, form open): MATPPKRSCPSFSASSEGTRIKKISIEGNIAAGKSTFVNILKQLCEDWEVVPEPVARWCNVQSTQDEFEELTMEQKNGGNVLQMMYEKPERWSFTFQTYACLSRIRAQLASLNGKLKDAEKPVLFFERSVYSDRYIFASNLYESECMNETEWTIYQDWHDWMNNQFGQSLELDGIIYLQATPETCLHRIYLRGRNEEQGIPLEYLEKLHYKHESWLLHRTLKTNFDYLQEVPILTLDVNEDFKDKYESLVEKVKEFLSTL
For binding assays (TSA, ITC and crystallography) cells were re-suspended in 50 mM TRIS, pH 8, 500 mM NaCl, 30 mM imidazole and 10% glycerol buffer and one EDTA free anti-protease tablet was added (Roche). After sonication and centrifugation (30,000 × g), the supernatant was loaded on a 5 ml HisTrap FF column (GE healthcare) pre-equilibrated with resuspension buffer. Protein was then eluted by resuspension buffer containing 500 mM imidazole. Protein eluted fractions were mixed and concentrated. […]
(Isothermal titration calorimetry measures the heat released or taken up as one component is titrated into another.)

The target in experiment [4] is T1, human c-KIT (Homo sapiens, UniProt P10721).
T1 construct: expressed in transfected cells; host or cells: Ba/F3 (murine IL3-dependent pro-B cell line)
T1 sequence (P10721 26-976): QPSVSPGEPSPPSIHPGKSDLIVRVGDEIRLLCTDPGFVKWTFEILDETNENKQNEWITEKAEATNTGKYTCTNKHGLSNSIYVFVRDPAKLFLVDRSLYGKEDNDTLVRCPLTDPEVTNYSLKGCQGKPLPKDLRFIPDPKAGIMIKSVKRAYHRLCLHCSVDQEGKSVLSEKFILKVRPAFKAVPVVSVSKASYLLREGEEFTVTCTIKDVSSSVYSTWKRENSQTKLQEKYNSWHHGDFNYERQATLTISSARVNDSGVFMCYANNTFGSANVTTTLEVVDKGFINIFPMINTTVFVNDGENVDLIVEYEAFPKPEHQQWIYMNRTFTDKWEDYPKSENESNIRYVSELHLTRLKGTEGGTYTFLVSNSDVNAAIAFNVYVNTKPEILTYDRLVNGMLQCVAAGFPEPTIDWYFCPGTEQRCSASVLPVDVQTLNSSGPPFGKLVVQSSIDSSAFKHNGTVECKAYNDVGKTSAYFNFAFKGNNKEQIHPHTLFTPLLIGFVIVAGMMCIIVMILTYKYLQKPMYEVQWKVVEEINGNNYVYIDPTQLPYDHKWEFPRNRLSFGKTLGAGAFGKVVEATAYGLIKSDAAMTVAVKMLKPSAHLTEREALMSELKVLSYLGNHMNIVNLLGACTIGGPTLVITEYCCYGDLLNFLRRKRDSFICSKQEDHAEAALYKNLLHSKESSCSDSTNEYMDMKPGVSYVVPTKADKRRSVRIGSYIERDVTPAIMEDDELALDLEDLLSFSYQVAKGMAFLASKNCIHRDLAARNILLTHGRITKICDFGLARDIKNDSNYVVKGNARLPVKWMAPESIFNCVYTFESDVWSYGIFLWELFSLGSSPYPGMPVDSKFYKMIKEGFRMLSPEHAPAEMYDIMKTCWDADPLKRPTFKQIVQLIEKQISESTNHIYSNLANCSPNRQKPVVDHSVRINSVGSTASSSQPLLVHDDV
Briefly: c-KIT cellular assay: Ba/F3 proliferation with SCF, without IL3. It counts as cell-based. Particulars: for Cell proliferation of the IL-3 dependent Ba/F3 cell line Mean (% prolif): SCF, no IL3, 48 h; for IC50 ratio of IL3/SCF (unspecific/c-KIT): Ba/F3 expressing WT human c-KIT, 72 h. Here is the method:
The generation of Ba/F3 cells expressing wild-type human c-KIT has been previously described by us[55],[56]. For the assay of Ba/F3 cell proliferation, plates were seeded with a total of 10,000 cells per well. Cells were supplemented, or not, with either 0.1% IL3 or 250 ng/ml murine SCF. IL3 was obtained from conditioned medium from X63-omIL-3 cells (obtained from Fritz Melchers laboratory (Berlin, Germany)) and murine SCF, which activates c-KIT, was purified from the conditioned medium of SCF-producing CHO cells. Cells were supplemented with compounds at varying concentrations (final 0.1% DMSO). […] The amount of reduced dye formed by metabolically active cells was quantified by its fluorescence measured at 560 nm (excitation) and 590 nm (emission) in a microplate reader (FLUOstar Omega, BMG Labtech). A blank well without cells was used as a background control. Each experiment was performed at least three times (with technical triplicates) and data are presented as the mean ± SD.

Molecules are shown by their SMILES.

Turning to `CCCN(c1nc(-c2nc(N)cc(N)n2)cs1)c1cc(-c2ccc(S(=O)(=O)N3CCN(C)CC3)cc2C(F)(F)F)ccc1C` [OR0642], in experiment [1], the “effect on nucleotide pools” value was “did not affect the nucleotide pools”. Moreover, the “apoptosis, Annexin V staining” value in experiment [2] was “neither dT nor OR0642 alone induced DNA damage or apoptosis”.
Take `Cc1ccc(NC(=O)c2ccc(CN3CCN(C)CC3)cc2)cc1Nc1nc(-c2nccc(N)n2)cs1` [dCKi1]: the Kd (commonly the concentration at which binding is half-saturated) in experiment [3] stood at 128 nM. Also, the “Cell proliferation of the IL-3 dependent Ba/F3 cell line Mean (% prolif)” value (“Cell proliferation … (% prolif)” below) was 98.5% in experiment [4] (3.7 nM); 97.1% in experiment [4] (11 nM); 99.7% in experiment [4] (33 nM); 87.3% in experiment [4] (99 nM); 83.7% in experiment [4] (296 nM); 66.8% in experiment [4] (889 nM). Besides, the “Cell proliferation … (% prolif)” value turned out to be 24.0% in experiment [4] (2667 nM), 0.4% in experiment [4] (8000 nM) and 0.35% in experiment [4] (24000 nM). Also, the “IC50 ratio of IL3/SCF (unspecific/c-KIT)” value in experiment [4] stood at 7.6.
With `Cc1ccc(NC(=O)c2ccc(CN3CCN(C)CC3)cc2)cc1Nc1nc(-c2nc(N)cc(N)n2)cs1` [dCKi2, N-(3-((4-(4,6-diaminopyrimidin-2-yl)thiazol-2-yl)amino)-4-methylphenyl)-4-((4-methylpiperazin-1-yl)methyl)benzamide], the Kd in experiment [3] worked out at 37 nM. Also, the “Cell proliferation … (% prolif)” value was determined as 97.2% in experiment [4] (3.7 nM); 96.0% in experiment [4] (11 nM); 97.1% in experiment [4] (33 nM); 91.8% in experiment [4] (99 nM); 94.5% in experiment [4] (296 nM); 86.6% in experiment [4] (889 nM). The “Cell proliferation … (% prolif)” value in experiment [4] (2667 nM) is on record as 76.3%; in experiment [4] (8000 nM) it was 48.8%; in experiment [4] (24000 nM), 6.7%. Also, in experiment [4], the “IC50 ratio of IL3/SCF (unspecific/c-KIT)” value is listed as 2.7.
As to `Cc1cn([C@H]2C[C@H](O)[C@@H](CO)O2)c(=O)[nH]c1=O` [dT, thymidine], the “effect on nucleotide pools” value in experiment [1] was “increased the dTTP pool”. Moreover, the “apoptosis, Annexin V staining” value in experiment [2] is “neither dT nor OR0642 alone induced DNA damage or apoptosis”.

(Values after paper PMC10227015, “From a drug repositioning to a structure-based drug design approach to tackle acute lymphoblastic leukemia” (Nature Communications, 2023).)
